Source: patent US6967196B1, “Sulfonamide compounds and uses thereof” (Bristol-Myers Squibb Company, priority 1999, dated 2005)
pIC50: −log10 of the molar value. Structures can show the parent of a compound that is named as a salt. Where two headings read alike, the source gives them in different places. Values belong to the compound of their own block, whether it stands above or below them.

Test system: amyloid β production in transfected H4 (human neuroglioma) cells stably expressing APP constructs
Test: In vitro cell-based assay of inhibitors of amyloid β production (ELISA)
In short: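 Test agents are screened at 10-100 μM for about 16 hours on cells stably expressing wild-type or variant APP. Secreted Aβ is measured by ELISA and compared with control-treated cells.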

[1] = transfected H4 cells stably expressing APP constructs, approximately 16 hours incubation, amyloid β in medium by ELISA, read-out: ACTIVITY (IC50, inhibition of amyloid β production)
[2] = Table B, transfected H4 cells stably expressing APP, approximately 16 hours incubation, amyloid β in medium by ELISA, read-out: ACTIVITY (inhibitory concentration IC50, inhibition of amyloid β production)
[3] = Homo sapiens, 16 h, transfected H4 cells expressing APP, approximately 16 hours incubation, amyloid β in medium by ELISA, read-out: ACTIVITY (IC50, inhibition of amyloid β production)

pIC50 (Homo sapiens, 16 h, transfected H4 cells stably expressing APP, approx. 16 h incubation, amyloid β in medium by ELISA, read-out: ACTIVITY (IC50, inhibition of amyloid β production)): 6.30 to 7.00
Compound: O=C(c1ccccc1)N1CCCCC1CCOc1ccccc1CN(c1cc(F)ccc1F)S(=O)(=O)c1ccc(Cl)cc1 (stereo not drawn) [Example 745, N-{2-[2-(1-benzoyl-2-piperidinyl)ethoxy]benzyl}-4-chloro-N-(2,5-difluorophenyl)benzenesulfonamide]

Compound: CSCCC[C@@H](C)N(c1cc(Cl)ccc1F)S(=O)(=O)c1ccc(Cl)cc1 [Example 1178, 4-chloro-N-[5-chloro-2-fluorophenyl]-N-[1(R)-methyl-(4-methylthio)butyl]benzenesulfonamide]
pIC50 [1]: ≥ 7.60

pIC50 [1]: < 5.00
Compound: 4-[2-({[(2-nitrophenyl)sulfonyl]anilino}methyl)phenyl]butanoic acid [Example 1097]

pIC50 (Homo sapiens, 16 h, transfected H4 cells stably expressing APP, approximately 16 hours incubation, amyloid β in medium by ELISA, read-out: ACTIVITY (IC50, inhibition of amyloid β production)): < 6.30
Compound: C=CCN(Cc1ccccc1OCCCN1CCCCC1)S(=O)(=O)c1ccc(Cl)cc1 [Example 985, N-allyl-4-chloro-N-{2-[3-(1-piperidinyl)propoxy]benzyl}benzenesulfonamide hydrochloride]

Compound: C[C@H](CCCS(C)(=O)=O)N(c1cc(Cl)ccc1F)S(=O)(=O)c1ccc(Cl)cc1 [Example 1165, 4-chloro-N-[5-chloro-2-fluorophenyl]-N-[1(R)-methyl-(4-methylsulfonyl)butyl]benzenesulfonamide]
pIC50 [1]: ≥ 7.60

Compound: O=S(=O)(Cc1ccccc1)N(Cc1ccccc1OCCCN1CCCCC1)c1cc(Cl)ccc1Cl [Example 261, N-(2,5-dichlorophenyl)(phenyl)-N-{2-[3-(1-piperidinyl)propoxy]benzyl}methanesulfonamide Hydrochloride]
pIC50 [2]: 7.30 to 7.60

pIC50 [3]: < 6.30
Compound: C[C@H](C(=O)NCCc1cccs1)N(c1cc(Cl)ccc1F)S(=O)(=O)c1ccc(Cl)cc1 [Example 1317]

pIC50 (Homo sapiens, 16 h, transfected H4 cells stably expressing APP, approximately 16 hours incubation, amyloid β in medium by ELISA, Table B, read-out: ACTIVITY (IC50, inhibition of amyloid β production)): 7.00 to 7.30
Compound: CCN(CCOc1ccccc1C(C)N(c1cc(F)ccc1F)S(=O)(=O)c1ccc(Cl)cc1)C(=O)CSc1ccccc1 (stereo not drawn) [Example 417, N-{2-[2-(1-{[(4-chlorophenyl)sulfonyl]-2,5-difluoroanilino}ethyl)phenoxy]ethyl}-N-ethyl-2-(phenylsulfanyl)acetamide]

Compound: 4-chloro-N-(5-chloro-2-fluorophenyl)-N-[3-[2-[4-chloro-N-(5-chloro-2-fluorophenyl)-N-[(3-amino)-1(R)-methylpropyl]benzenesulfonamide]-3,4-dioxo-1-cyclobutenyl)amine-1(R)- [Example 1130]
pIC50 [1]: 7.00 to 7.30

Compound: O=S(=O)(c1ccc(Cl)cc1)N(Cc1ncccc1OCCCN1CCCCC1)c1cc(F)ccc1F [Example 233, 4-Chloro-N-(2,5-difluorophenyl)-N-({3-[3-(1-piperidinyl)propoxy]-2-pyridinyl}methyl)benzenesulfonamide Hydrochloride]
pIC50 (read-out: ACTIVITY (inhibitory concentration IC50, inhibition of amyloid β production)): 7.30 to 7.60

Compound: CC(c1ccccc1OCCCN(C)C(=O)Oc1ccccc1)N(c1cc(F)ccc1F)S(=O)(=O)c1ccc(Cl)cc1 (stereo not drawn) [Example 826, phenyl 3-[2-(1-{[(4-chlorophenyl)sulfonyl]-2,5-difluoroanilino}ethyl)phenoxy]propyl(methyl)carbamate]
pIC50 (transfected H4 cells stably expressing APP, approximately 16 hours incubation, amyloid β in medium by ELISA, read-out: ACTIVITY (IC50, inhibition of amyloid β production)): 6.30 to 7.00

Compound: CC1CS(=O)(=O)CCN1CCCCC[C@@H](C)N(c1cc(Cl)ccc1F)S(=O)(=O)c1ccc(Cl)cc1 (stereo partly drawn) [Example 1275]
pIC50 [1]: ≥ 7.60

pIC50 [2]: ≥ 7.60
Compound: COC(=O)CSCC[C@@H](C)N(c1cc(Cl)ccc1Cl)S(=O)(=O)c1ccc(Cl)cc1 [Example 179, Methyl(6R)-6-[(2,5,dichlorophenyl)[(4-chlorophenyl)sulfonyl]amino]-3-thioheptanoate]

pIC50 [3]: < 6.30
Compound: C[C@H](C(=O)NC1CCCc2ccccc21)N(c1cc(Cl)ccc1F)S(=O)(=O)c1ccc(Cl)cc1 (stereo partly drawn) [Example 1309]

Compound: CC(c1ccccc1OCCN(C)C(=O)C(F)(F)C(F)(F)C(F)(F)F)N(c1cc(F)ccc1F)S(=O)(=O)c1ccc(Cl)cc1 (stereo not drawn) [Example 796, N-{2-[2-(1-{[(4-chlorophenyl)sulfonyl]-2,5-difluoroanilino}ethyl)phenoxy]ethyl}-2,2,3,3,4,4,4-heptafluoro-N-methylbutanamide]
pIC50 (transfected H4 cells stably expressing APP, approx. 16 h incubation, amyloid β in medium by ELISA, read-out: ACTIVITY (IC50, inhibition of amyloid β production)): 6.30 to 7.00
